Assays:
[1] = tested on: B16F10 mouse melanoma cells; experiment: B16F10 IFNγ-induced cellular growth inhibition assay; format: cell-based; conditions: absence of IFNγ
Experimental: Example 294: B16F10 IFNγ-Induced Cellular Growth Inhibition Assay
B16F10 mouse melanoma cells (ATCC Cat# CRL-6475, Manassas, Va.) were seeded at a density of 500 cells per well in a 384-well clear bottom plate (Corning Cat#3765, Corning, N.Y.) in 25 μL total volume of DMEM+10% FBS (Sigma Cat# D6429 and Sigma Cat# F4135, St. Louis, MO). Cells were allowed to adhere overnight at 37° C. +5% CO2. On the following day, 12.5 μL of mouse IFNγ (RD systems Cat# 485-MI/CF, Minneapolis, Minn.) was added to half of the plate (columns 13-24) at a concentration of 2 ng/mL for a final assay concentration of 0.5 ng/mL of IFNγ. Media only (12.5 μL of DMEM+10% FBS) was added to the remainder of the plate (columns 1-12). Next, compounds resuspended in DMSO (Sigma Cat# D2650) at 100 mM were diluted in semi-log dilutions in DMSO ranging from 100 mM to 0.001 mM and DMSO only controls were included. The compound/DMSO dilutions were further diluted 1:250 in DMEM+10% FBS, and 12.5 μL of these dilutions were added in triplicates to cells of both treatment arms (with and without IFNγ). Final compound concentrations ranged from 100 μM to 0.001 μM with a final DMSO concentration of 0.1%. Compounds were only dosed in the inner 240 wells, avoiding the outer 2-well perimeter of the plate to minimize edge effects. Finally, the plate was loaded into an IncuCyte® S3 Live Cell Analysis System (Essen Bioscience-Sartorius, Ann Arbor, Mich.) maintained in a 37° C. +5% CO2 incubator, allowed to equilibrate for 2 hours, and imaged every 6 hours for 5 days. Confluence over time for compound dilutions in the presence and absence of IFNγ was measured. Growth inhibition values were obtained when the “DMSO/no IFNγ” control reached confluence >95%. At these time points, the percent growth inhibition of each compound at the indicated concentration was calculated relative to the “DMSO/with IFNγ” control.

[2] = tested on: Pan T cells isolated from C57BL6 splenocytes; experiment: T cell activation assay (CD25/CD69 flow cytometry); format: cell-based, mouse; conditions: with TCR stimulation; Table 5
Experimental: Example 295: T cell activation and function assays
Pan T cells were isolated from C57BL6 splenocytes using a MACS Pan T cell isolation kit II (Miltenyi Biotec, Auburn, Calif.) according to the manufacturer's instructions. Isolated T cells (200,000 cells/well in a 96 well flat-bottom plate) were cultured in RPMI 1640 supplemented with 10% FBS, […] 2-mercatoethanol, 100 U/mL penicillin, and 100 μg/mL streptomycin, and incubated with the indicated concentration of compound or DMSO in duplicates. After 1 hour, mouse T cell activator CD3/CD28 Dynabeads (ThermoFisher Scientific, Waltham, Mass.) were added at a 1:5 beads to cells ratio to stimulate the T cells for 2 or 3 days as outlined below. T cells with or without compound were incubated in the absence of T cell activator beads (media only) as control.
After 2 days of stimulation, activation status of T cells was assessed by flow cytometry. T cells were first subjected to Zombie Violet™ Fixable Viability dye (BioLegend, San Diego, Calif.) for dead cell exclusion, washed and then stained with BUV805 labeled anti-CD8, APC-R700 labeled anti-CD25 (both from BD Biosciences, San Jose, Calif.) and PE labeled anti-CD69 (BioLegend, San Diego, Calif.) antibodies. After staining, cells were fixed with 2% paraformaldehyde and acquired on a BD LSRFortessa™ X-20 flow cytometer (BD Biosciences, San Jose, Calif.) using BD FACSDiva™ software. Data was analyzed using FlowJo V10 (Flow Jo LLC, Ashland, OR). Dead cells were excluded and frequencies of activated CD8 T cells was reported as the frequency of CD25+ or CD69+ cells within the CD8+ population. The expression level of CD25 and CD69 indicates the activation status of cells on a per cell basis and was evaluated by the mean fluorescence intensities (MFI) of CD25 and CD69.

[3] = tested on: MC-38 murine colon adenocarcinoma; experiment: In vivo efficacy in MC38 syngeneic tumor model; conditions: 300 mg/kg/dose oral BID for 21 days
Experimental: All experiments were conducted in compliance with AbbVie's Institutional Animal Care and Use Committee and the National Institutes of Health Guide for Care and Use of Laboratory Animals guidelines in a facility accredited by the Association for the Assessment and Accreditation of Laboratory Animal Care. […] The mice were group-housed 10 per cage. Food and water were available ad libitum. Animals were acclimated to the animal facilities for a period of at least one week prior to commencement of experiments. Animals were tested in the light phase of a 12-hour light:12-hour dark schedule (lights on 0600 hours).
Cells were grown to passage 3 in vitro. […] The injection volume was 0.1 mL and was composed of a 1:1 mixture of S-MEM and Matrigel® (Corning, N.Y., USA). […] Following size match, treatments were initiated on the same day. […] Compound 124 was formulated in 5% DMSO, 5% Tween 80 (Polysorbate 80), 20% PEG-400 and 70% D5W (5% dextrose in water) and was dosed at 10 mL/kg. […] Tumor volume was calculated three times weekly. Measurements of the length (L) and width (W) of the tumor were taken via electronic caliper and the volume was calculated according to the following equation: V=L×W^2/2 using Study Director Version 3.1.399.22 (Studylog Systems, Inc, CA, USA). […] Reported TGIMax is the largest TGI value for any timepoint that tumors volumes were collected for that treatment group.

[4] = target: T1, His tagged full-length PTP1B protein (Homo sapiens, UniProt P18031); experiment: Mobility Shift Assay (MSA) used to determine potency of PTP1B inhibitors; format: biochemical; conditions: Table 2
T1 construct: made in house
T1 sequence (P18031 with tags, fused parts or gaps): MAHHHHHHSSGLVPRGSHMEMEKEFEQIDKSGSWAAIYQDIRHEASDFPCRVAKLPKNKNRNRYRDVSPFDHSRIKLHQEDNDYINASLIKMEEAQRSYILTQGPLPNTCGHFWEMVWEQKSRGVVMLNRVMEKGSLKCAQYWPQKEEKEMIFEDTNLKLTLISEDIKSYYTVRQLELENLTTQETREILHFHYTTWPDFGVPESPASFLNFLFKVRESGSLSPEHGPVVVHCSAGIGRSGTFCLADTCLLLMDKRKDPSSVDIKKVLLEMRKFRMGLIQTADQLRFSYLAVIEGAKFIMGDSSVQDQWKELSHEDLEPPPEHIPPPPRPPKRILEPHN
Experimental: The enzymatic assay used to determine activity is a mobility shift assay using a LabChip EZ Reader by Caliper Life Sciences. The enzymatic reaction was carried out in assay buffer (50 mM HEPES pH 7.5, 1 mM EGTA, 10 mM EDTA, 0.01% Tween® 20, and 2 mM DTT). […] The enzyme (at 0.5 nM) was incubated with compound for 10 minutes at room temperature. […] The % inhibition was then used to calculate the IC50 values.

In the case of `COc1ccc2cc(O)c(N3CC(=O)NS3(=O)=O)c(F)c2c1` [Compound 124, 5-(1-fluoro-3-hydroxy-7-methoxynaphthalen-2-yl)-1λ^6,2,5-thiadiazolidine-1,1,3-trione], the “growth inhibition in the absence of IFNγ” value [1] is reported as “no observed growth inhibition”, the “T cell activation and T cell function” value [2] is reported as “increased both T cell activation and T cell function” and the tolerability [3] is reported as “well tolerated, without obvious adverse health events”. The IC50 [4] was 1 to 10 nM.
For `CC(C)(O)CCOc1ccc2cc(O)c(N3CC(=O)NS3(=O)=O)c(F)c2c1` [Compound 182, 5-[1-fluoro-3-hydroxy-7-(3-hydroxy-3-methylbutoxy)naphthalen-2-yl]-1λ^6,2,5-thiadiazolidine-1,1,3-trione], the “T cell activation and T cell function” value [2] was “increased both T cell activation and T cell function” and the tolerability [3] was “well tolerated, without obvious adverse health events”.

— patent US20230019236A1, “PROTEIN TYROSINE PHOSPHATASE INHIBITORS AND METHODS OF USE THEREOF” (Calico Life Sciences LLC, priority 2019, published 2023)
